IC50, Dmax and DC50 data for 18 compounds are collected here from patent publication US20250197387A1, “BCL-XL DEGRADERS AND USES THEREOF” (Kymera Therapeutics, Inc., priority 2021, published 2025).

Common to all, as to assay type: cell-based
The subject of test [1] is Caki-2 cells. The experiment in a line: CTG (CellTiter-Glo) cell viability assay, Caki-2. Particulars: Homo sapiens, 72 h, 3 day incubation, read-out: CTG Chempartner - Caki-2 3 day: Average external-IC50. Put shortly: (§1)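 10,000 cells/well; 9 doses, 1:3 from 10 μM top; 0.2% DMSO; 3 d, 37 °C, 5% CO2; CTG luminescence; IC50 via 3-parameter logistic fit. Letter bins differ: Caki-2 C/D cut at 10.0 μM, MOLT-4 at 3.0 μM.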
(In ATP-based viability assays light output follows the ATP content of the culture.)

Test [2] concerns the target T1, BCL-XL (Homo sapiens, UniProt Q07817).
T1 construct: endogenous in cells; host or cells: MOLT-4
Kind of test: BCL-XL degradation assay, western blot in MOLT-4 cells, 16 h. Conditions: western blot, MOLT-4 cells, 16 h; for Dmax: read-out: Bcl-xL WB in MOLT-4 degradation 16 h: Average Dmax %; for DC50: read-out: Bcl-xL WB in MOLT-4 degradation 16 h: Mean external-Abs DC50. Put shortly:
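Infrared-imaged western blots quantified BCL-xL (normalised against beta-actin/GAPDH) after 16 hr, 37° C exposure of MOLT-4 cells to 0.02-10 μM compound; results given as DC50 and Dmax % bins.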
For orientation: A western blot detects proteins with antibodies after separation by electrophoresis.

The test system of test [3] is MOLT-4 cells. Kind of test: CTG (CellTiter-Glo) cell viability assay, MOLT-4. Conditions: Homo sapiens, MOLT-4, 72 h, 3 day incubation, read-out: CTG Cell Viability Assay - MOLT-4 3 day: Average external-IC50. In a few lines: as §1
Test [4] deals with T1, BCL-XL. Kind of test: Bcl-xL ELISA degradation in MOLT-4 cells, 6 h. Particulars: for DC50: read-out: Bcl-xL ELISA in MOLT-4 degradation 6 h: Mean external-Abs DC50. The protocol: The letter codes for BCL-XL DC50 include: A (<0.01 μM); B (0.01-0.1 μM); C (>[…]); D (>0.5-1.0 μM); and E (>1.0 μM). The letter codes for Dmax % include A (>75%); B (50 to 75%); C (<50%).

T1 sequence (Q07817 whole entry): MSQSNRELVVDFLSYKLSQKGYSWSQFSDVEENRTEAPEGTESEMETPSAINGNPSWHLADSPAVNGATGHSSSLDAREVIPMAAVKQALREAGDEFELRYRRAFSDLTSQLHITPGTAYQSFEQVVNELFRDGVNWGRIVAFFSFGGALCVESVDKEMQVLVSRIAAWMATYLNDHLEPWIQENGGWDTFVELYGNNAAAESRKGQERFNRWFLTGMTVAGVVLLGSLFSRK

By IC50 is commonly meant the midpoint of a concentration-inhibition curve. The Dmax is the greatest extent of degradation seen. What is called DC50 is the concentration at which degradation of the target reaches its halfway point. Take `Cc1ncsc1-c1ccc([C@H](C)NC(=O)[C@@H]2C[C@@H](O)CN2C(=O)[C@H](NC(=O)CCCCCCCS(=O)(=O)NC(=O)c2nc(N3CCc4cccc(C(=O)Nc5nc6ccccc6s5)c4C3)ccc2-c2cnn(CC(C)C)c2C)C(C)(C)C)cc1` [I-179]: the concentration for half-maximal inhibition (IC50) in test [1] is above 10 µM; in test [3], 0.1 to 1 µM. The Dmax in test [2] and in test [4] was above 75% throughout. Besides, the half-maximal degradation concentration (DC50) in test [2] and in test [4] was 0.01 to 0.1 µM each time.

With `C#Cc1ccc([C@H](C)NC(=O)[C@@H]2C[C@@H](O)CN2C(=O)[C@@H](NC(=O)CCCCCC(=O)N2CCN(CC[C@H](CSc3ccccc3)Nc3ccc(S(=O)(=O)NC(=O)c4ccc(N5CCN(CC6=C(c7ccc(Cl)cc7)CCC(C)(C)C6)CC5)cc4)cc3S(=O)(=O)C(F)(F)F)CC2)C(C)(C)C)cc1` [I-388], the IC50 is above 10 µM in test [1] and below 0.1 µM in test [3]. Besides, the Dmax in test [2] is above 75%; in test [4] it was 50 to 75%. Further, the DC50 in test [2] lay in the range of 0.01 to 0.1 µM; in test [4], 0.1 to 0.5 µM.

On to `Cc1ncsc1-c1ccc(CNC(=O)[C@@H]2C[C@@H](O)CN2C(=O)[C@@H](NC(=O)C2(F)CC2)C(C)(C)C)c(OCCCCCS(=O)(=O)NC(=O)c2nc(N3CCc4cccc(C(=O)Nc5nc6ccccc6s5)c4C3)ccc2-c2cnn(CC34CC5CC(CC(C5)C3)C4)c2C)c1` [I-121], for which the half-maximal inhibitory concentration (IC50) is 0.1 to 1 µM in test [1] and below 0.1 µM in test [3]. The Dmax in test [2] and in test [4] was above 75% in each case. The half-maximal degradation concentration (DC50) in test [2] is below 0.01 µM; in test [4] it was 0.01 to 0.1 µM.

Take `C#Cc1ccc(CNC(=O)[C@@H]2C[C@@H](O)CN2C(=O)[C@@H](NC(=O)CCCCS(=O)(=O)NC(=O)c2nc(N(C)c3cc(C)c(Nc4nc5ccccc5s4)nn3)ccc2-c2cnn(CC3CCCCC3)c2C)C(C)(C)C)cc1` [I-345]: the IC50 in test [1] is above 10 µM; in test [3] it was 1 to 3 µM. The maximal degradation (Dmax) in test [2] was above 75%; in test [4], 50 to 75%. Besides, the DC50 in test [2] and in test [4] was 0.1 to 0.5 µM each time.

With `Cc1ncsc1-c1ccc(CNC(=O)[C@@H]2C[C@@H](O)CN2C(=O)[C@@H](NC(=O)CCCCCC(=O)N2CCN(CC[C@H](CSc3ccccc3)Nc3ccc(S(=O)(=O)NC(=O)c4ccc(N5CCN(CC6=C(c7ccc(Cl)cc7)CCC(C)(C)C6)CC5)cc4)cc3S(=O)(=O)C(F)(F)F)CC2)C(C)(C)C)cc1` [I-389], the 50% inhibitory concentration (IC50) in test [1] is 1 to 10 µM; in test [3] it was below 0.1 µM. The figures for the Dmax in test [2] and in test [4] were above 75% and below 50%, respectively. Further, the DC50 in test [2] was 0.01 to 0.1 µM; in test [4], above 1 µM.

Turning to `Cc1ncsc1-c1ccc(CNC(=O)[C@@H]2C[C@@H](O)CN2C(=O)[C@@H](NC(=O)C2(F)CC2)C(C)(C)C)c(OCCCCCS(=O)(=O)NC(=O)c2nc(N3CCc4cccc(C(=O)Nc5nc6cccnc6s5)c4C3)ccc2-c2cnn(CC3CCCCC3)c2C)c1` [I-187], the figures for the IC50 in test [1] and in test [3] were above 10 µM and 0.1 to 1 µM, respectively. Besides, the values for the Dmax in test [2] and in test [4] were above 75% and 50 to 75%, respectively. In addition, the 50% degradation concentration (DC50) in test [2] and in test [4] was 0.01 to 0.1 µM in each case.

Take `Cc1ncsc1-c1ccc(CNC(=O)[C@@H]2C[C@@H](O)CN2C(=O)[C@@H](NC(=O)CCCS(=O)(=O)NC(=O)c2nc(N3CCc4cccc(C(=O)Nc5nc6cccnc6s5)c4C3)ccc2-c2cnn(CC3CCCCC3)c2C)C(C)(C)C)cc1` [I-351]: the IC50 in test [1] is above 10 µM; in test [3] it was above 3 µM. The results for the Dmax in test [2] and in test [4] were 50 to 75% and above 75%, respectively. Further, the DC50 in test [2] and in test [4] was 0.1 to 0.5 µM throughout.

In the case of `Cc1cc(N(C)c2ccc(-c3cnn(CC4CCCCC4)c3C)c(C(=O)NS(=O)(=O)CCCCC(=O)N[C@H](C(=O)N3C[C@H](O)C[C@H]3C(=O)N[C@@H](C)c3ccc(-c4scnc4C)cc3)C(C)(C)C)n2)nnc1Nc1nc2ccccc2s1` [I-353], the half-inhibitory concentration (IC50) in test [1] is above 10 µM; in test [3], 1 to 3 µM. The Dmax in test [2] and in test [4] was above 75% in each case. Moreover, the half-maximal degradation concentration (DC50) in test [2] is 0.01 to 0.1 µM; in test [4], 0.1 to 0.5 µM.

With `Cc1ncsc1-c1ccc(CNC(=O)[C@@H]2C[C@@H](O)CN2C(=O)[C@@H](NC(=O)C2(F)CC2)C(C)(C)C)c(OCCN2CCN(CC[C@H](CSc3ccccc3)Nc3ccc(S(=O)(=O)NC(=O)c4ccc(N5CCN(CC6=C(c7ccc(Cl)cc7)CCC(C)(C)C6)CC5)cc4)cc3S(=O)(=O)C(F)(F)F)CC2)c1` [I-394], the IC50 is above 10 µM in test [1] and below 0.1 µM in test [3]. The values for the Dmax in test [2] and in test [4] were above 75% and 50 to 75%, respectively. The DC50 was below 0.01 µM in test [2] and 0.01 to 0.1 µM in test [4].

On to `Cc1ncsc1-c1ccc([C@H](C)NC(=O)[C@@H]2C[C@@H](O)CN2C(=O)[C@@H](NC(=O)CCc2ccc(S(=O)(=O)NC(=O)c3nc(N4CCc5cccc(C(=O)Nc6nc7ccccc7s6)c5C4)ccc3-c3cnn(CC4CCCCC4)c3C)cc2)C(C)(C)C)cc1` [I-123], for which the IC50 in test [1] was 1 to 10 µM; in test [3], below 0.1 µM. Also, the Dmax in test [2] and in test [4] was above 75% throughout. In addition, the half-maximal degradation concentration (DC50) was below 0.01 µM in test [2] and 0.01 to 0.1 µM in test [4].

With `Cc1ncsc1-c1ccc(CNC(=O)[C@@H]2C[C@@H](O)CN2C(=O)[C@@H](NC(=O)C2(F)CC2)C(C)(C)C)c(OCCCCCS(=O)(=O)NC(=O)c2nc(N3CCc4cccc(C(=O)Nc5nc6ccccc6s5)c4C3)ccc2-c2cnn(CC3CCCCC3)c2C)c1` [I-177], the half-maximal inhibitory concentration (IC50) in test [1] is 1 to 10 µM; in test [3], below 0.1 µM. The Dmax in test [2] and in test [4] was above 75% in each case. For the same compound, the DC50 was below 0.01 µM in test [2] and 0.01 to 0.1 µM in test [4].

As to `Cc1ncsc1-c1ccc([C@H](C)NC(=O)[C@@H]2C[C@@H](O)CN2C(=O)[C@@H](NC(=O)C2CCN(c3ccc(S(=O)(=O)NC(=O)c4nc(N5CCc6cccc(C(=O)Nc7nc8ccccc8s7)c6C5)ccc4-c4cnn(CC5CCCCC5)c4C)cc3)CC2)C(C)(C)C)cc1` [I-195], the half-inhibitory concentration (IC50) in test [1] is 1 to 10 µM; in test [3], below 0.1 µM. Moreover, the Dmax in test [2] and in test [4] was above 75% in each case. Moreover, the half-maximal degradation concentration (DC50) in test [2] is below 0.01 µM; in test [4], 0.01 to 0.1 µM.

Turning to `C#Cc1ccc(CNC(=O)[C@@H]2C[C@@H](O)CN2C(=O)[C@@H](NC(=O)CCCS(=O)(=O)NC(=O)c2nc(N(C)c3cc(C)c(Nc4nc5ccccc5s4)nn3)ccc2-c2cnn(CC3CCCCC3)c2C)C(C)(C)C)cc1` [I-340], the IC50 is above 10 µM in test [1] and 0.1 to 1 µM in test [3]. Besides, the figures for the Dmax in test [2] and in test [4] were above 75% and 50 to 75%, respectively. Also, the figures for the half-maximal degradation concentration (DC50) in test [2] and in test [4] were 0.1 to 0.5 µM and 0.01 to 0.1 µM, respectively.

Regarding `Cc1ncsc1-c1ccc([C@H](C)NC(=O)[C@@H]2C[C@@H](O)CN2C(=O)[C@@H](c2cc(OC3CCN(CCCS(=O)(=O)NC(=O)c4nc(N5CCc6cccc(C(=O)Nc7nc8ccccc8s7)c6C5)ccc4-c4cnn(CC5CCCCC5)c4C)CC3)no2)C(C)C)cc1` [I-178], the IC50 is above 10 µM in test [1] and 0.1 to 1 µM in test [3]. Besides, the maximal degradation (Dmax) is above 75% in test [2] and 50 to 75% in test [4]. The DC50 in test [2] and in test [4] was 0.01 to 0.1 µM each time.

On to `Cc1cc([C@@H](C(=O)N2C[C@H](O)C[C@H]2C(=O)NCc2ccc(-c3scnc3C)cc2OCCCCCCNC(=O)c2nc(N3CCc4cccc(C(=O)Nc5nc6ccccc6s5)c4C3)ccc2-c2cnn(CC3CCCCC3)c2C)C(C)C)on1` [I-198], for which the concentration for half-maximal inhibition (IC50) in test [1] was above 10 µM. In addition, in test [2], the Dmax is above 75% and the half-maximal degradation concentration (DC50) fell in the range of 0.01 to 0.1 µM. Besides, the IC50 in test [3] was below 0.1 µM.

`Cc1ncsc1-c1ccc([C@H](C)NC(=O)[C@@H]2C[C@@H](O)CN2C(=O)[C@@H](NC(=O)CCCCCCCS(=O)(=O)NC(=O)c2nc(N3CCc4cccc(C(=O)Nc5nc6cccnc6s5)c4C3)ccc2-c2cnn(CC34CC5CC(CC(C5)C3)C4)c2C)C(C)(C)C)cc1` [I-141]: the IC50 in test [1] was in the range of 1 to 10 µM. In test [2], the Dmax is above 75% and the DC50 was below 0.01 µM. Further, the IC50 in test [3] was below 0.1 µM.

As for `Cc1ncsc1-c1ccc([C@H](CC(=O)NCCCCCNC(=O)c2nc(N3CCc4cccc(C(=O)Nc5nc6ccccc6s5)c4C3)ccc2-c2cnn(CC3CCCCC3)c2C)NC(=O)[C@@H]2C[C@@H](O)CN2C(=O)[C@@H](NC(=O)C2(F)CC2)C(C)(C)C)cc1` [I-199], in test [1], the IC50 was above 10 µM. Further, in test [2], the Dmax was above 75% and the 50% degradation concentration (DC50) was in the range of 0.01 to 0.1 µM. Besides, in test [3], the IC50 is 0.1 to 1 µM.

`Cc1ncsc1-c1ccc([C@H](C)NC(=O)[C@@H]2C[C@@H](O)CN2C(=O)[C@@H](NC(=O)CCCCCCCCC(=O)N(C)CC#Cc2ccc(OCCCc3sc(N4CCc5cccc(C(=O)Nc6nc7ccccc7s6)c5C4)nc3C(=O)O)c(F)c2)C(C)(C)C)cc1` [I-384]: the IC50 in test [1] was in the range of 1 to 10 µM. Further, in test [2], the greatest degradation seen (Dmax) was above 75% and the half-maximal degradation concentration (DC50) was below 0.01 µM. In addition, the IC50 in test [3] is 0.1 to 1 µM.
